Legend:
[1] = target: T1, ΔF508-CFTR (Homo sapiens, UniProt P13569, DEL508-508); test: CFTR cell surface levels using HRP-tagged ΔF508-CFTR expressing CFBE cells, in the presence of a co-corrector; type: cell-based; conditions: HRP-tagged ΔF508-CFTR expressing CFBE cells, in the presence of 3 μM co-corrector; for EC50: read-out: EC50
T1 construct: host or cells: CFBE41o-, doxycycline-inducible
How it was run: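 Cells were seeded with 0.5 μg/mL doxycycline and held 68 h at 37 °C. Test compounds plus 3 μM co-corrector (final 0.1% DMSO) were then added for 20 h at 33 °C. Washed cells received HRP substrate, and luminescence was normalized between DMSO and 3 μM co-corrector controls.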

[2] = target: T1, ΔF508-CFTR; test: CFTR cell surface levels using HRP-tagged ΔF508-CFTR expressing CFBE cells, intrinsic corrector capacity; type: cell-based; conditions: for EC50: read-out: EC50
How it was run: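 Here the cells express ΔF508-CFTR with horseradish peroxidase inserted in extracellular loop 4, so only rescued channel at the surface gives luminescent signal. Compounds act on their own, 20 h at the reduced temperature of 33 °C; values are percent activity relative to DMSO and a 3 μM corrector.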

[3] = HRP-tagged ΔF508-CFTR expressing CFBE cells, intrinsic corrector capacity (no co-corrector), 33° C., 20 hours
[4] = HRP-tagged ΔF508-CFTR CFBE41o- cells, compounds alone (intrinsic corrector capacity), 20 hours at 33° C., positive control 3 μM corrector
[5] = HRP-tagged ΔF508-CFTR CFBE41o- cells, compounds alone (intrinsic corrector capacity), 20 hours at 33° C.

T1 sequence (P13569 with tags, fused parts or gaps DEL508-508): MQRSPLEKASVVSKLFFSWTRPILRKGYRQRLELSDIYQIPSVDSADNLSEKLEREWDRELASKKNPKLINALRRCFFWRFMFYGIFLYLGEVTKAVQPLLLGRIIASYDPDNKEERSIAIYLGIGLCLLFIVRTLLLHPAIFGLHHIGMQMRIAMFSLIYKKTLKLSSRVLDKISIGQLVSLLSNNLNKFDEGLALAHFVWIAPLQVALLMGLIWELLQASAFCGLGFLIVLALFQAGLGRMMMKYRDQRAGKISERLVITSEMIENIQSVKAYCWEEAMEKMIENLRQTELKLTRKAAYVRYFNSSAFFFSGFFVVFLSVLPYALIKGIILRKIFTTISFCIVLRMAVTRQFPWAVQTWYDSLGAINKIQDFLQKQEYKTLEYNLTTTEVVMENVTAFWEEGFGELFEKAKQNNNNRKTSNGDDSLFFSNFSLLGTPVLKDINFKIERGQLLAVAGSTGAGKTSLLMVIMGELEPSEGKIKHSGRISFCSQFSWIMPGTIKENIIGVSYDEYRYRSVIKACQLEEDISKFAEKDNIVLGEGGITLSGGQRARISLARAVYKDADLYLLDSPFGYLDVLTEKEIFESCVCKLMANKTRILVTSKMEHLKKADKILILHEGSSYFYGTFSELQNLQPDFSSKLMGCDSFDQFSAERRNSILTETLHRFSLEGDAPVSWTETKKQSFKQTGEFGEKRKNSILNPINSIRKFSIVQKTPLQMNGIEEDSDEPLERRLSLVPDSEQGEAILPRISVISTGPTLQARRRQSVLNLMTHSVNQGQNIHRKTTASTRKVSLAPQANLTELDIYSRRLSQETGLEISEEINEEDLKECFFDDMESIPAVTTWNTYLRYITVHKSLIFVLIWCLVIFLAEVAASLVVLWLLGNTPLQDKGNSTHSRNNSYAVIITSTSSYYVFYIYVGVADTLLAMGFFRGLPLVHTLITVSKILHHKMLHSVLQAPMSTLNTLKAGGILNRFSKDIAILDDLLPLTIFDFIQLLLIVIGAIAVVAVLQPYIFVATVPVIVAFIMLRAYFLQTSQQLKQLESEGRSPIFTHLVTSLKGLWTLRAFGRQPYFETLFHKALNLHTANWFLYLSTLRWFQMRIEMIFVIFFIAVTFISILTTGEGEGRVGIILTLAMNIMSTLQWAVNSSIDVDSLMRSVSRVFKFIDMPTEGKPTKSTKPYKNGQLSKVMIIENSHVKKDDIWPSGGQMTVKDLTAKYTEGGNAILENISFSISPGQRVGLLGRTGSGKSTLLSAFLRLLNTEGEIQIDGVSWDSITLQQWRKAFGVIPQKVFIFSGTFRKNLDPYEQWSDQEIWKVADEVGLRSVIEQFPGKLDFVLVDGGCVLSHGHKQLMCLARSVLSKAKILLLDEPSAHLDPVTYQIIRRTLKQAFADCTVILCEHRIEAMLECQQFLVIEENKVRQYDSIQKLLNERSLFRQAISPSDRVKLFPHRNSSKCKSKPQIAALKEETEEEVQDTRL

Row | Compound | % Activation [1] [%] | EC50 [1] [µM] | % Activation [2, 3] [%] | EC50 [2, 3] [µM] | % Activation [2, 4] [%] | EC50 [2, 5] [µM]
1 | O=C(O)c1cc(N2CCC(CN3CCC(F)(F)C3)CC2)c2c(C3CCC3)nn(-c3ccccc3)c2n1 [compound 828, 3-cyclobutyl-4-{4-[(3,3-difluoropyrrolidin-1-yl)methyl]piperidin-1-yl}-1-phenyl-1H-pyrazolo[3,4-b]pyridine-6-carboxylic acid] | 518.35 | 0.0479 | 283.5 | 0.0832 |  | 
2 | N#CC1CCN(c2ccc(-c3cc(C(=O)O)nc4c3c(C3CC(F)(F)C3)nn4-c3ccccc3)cn2)CC1 [compound 420, 4-[6-(4-cyanopiperidin-1-yl)pyridin-3-yl]-3-(3,3-difluorocyclobutyl)-1-phenyl-1H-pyrazolo[3,4-b]pyridine-6-carboxylic acid] | 411.25 | 0.289 | 211.15 | 0.534 |  | 
3 | O=C(O)c1cc(N2CCC3(CC2)CCN(C2COC2)CC3)c2c(C3CCC3)nn(-c3ccc(F)cc3)c2n1 [compound 904, 3-cyclobutyl-1-(4-fluorophenyl)-4-[9-(oxetan-3-yl)-3,9-diazaspiro[5.5]undecan-3-yl]-1H-pyrazolo[3,4-b]pyridine-6-carboxylic acid] | 372.85 | 0.102 | 200.1 | 0.237 |  | 
4 | CC(C)c1nn(-c2ccc(F)cc2)c2nc(C(=O)O)cc(N3CCC(CO)CC3)c12 [compound 394, 1-(4-fluorophenyl)-4-[4-(hydroxymethyl)piperidin-1-yl]-3-(propan-2-yl)-1H-pyrazolo[3,4-b]pyridine-6-carboxylic acid] | 392.57 | 0.677 |  |  | 235.1 | 1.49
5 | N#CC1CCN(c2ccc(-c3cc(C(=O)O)nc4c3c(OC3COC3)nn4-c3ccccc3)cn2)CC1 [compound 592, 4-[6-(4-cyanopiperidin-1-yl)pyridin-3-yl]-3-[(oxetan-3-yl)oxy]-1-phenyl-1H-pyrazolo[3,4-b]pyridine-6-carboxylic acid] | 279 | 0.584 | 116.6 | 1.16 |  | 
6 | COCC1(C)CN(c2cc(C(=O)O)nc3c2c(C)nn3-c2ccccc2)C1 [compound 289, 4-[3-(methoxymethyl)-3-methylazetidin-1-yl]-3-methyl-1-phenyl-1H-pyrazolo[3,4-b]pyridine-6-carboxylic acid] | 172.8 | 1.83 |  |  | 46.35 | 2.51
7 | Cc1nn(-c2ccccc2)c2nc(C(=O)O)cc(N3CCC(F)(F)C3)c12 [compound 299, 4-(3,3-difluoropyrrolidin-1-yl)-3-methyl-1-phenyl-1H-pyrazolo[3,4-b]pyridine-6-carboxylic acid] | 194.8 | 2.51 |  |  | 51.845 | 2.51
8 | CC(C)(COc1cc(C(=O)O)nc2c1c(C1CCC1)nn2-c1ccccc1)S(C)(=O)=O [compound 629, 3-cyclobutyl-4-[2-(methanesulfonyl)-2-methylpropoxy]-1-phenyl-1H-pyrazolo[3,4-b]pyridine-6-carboxylic acid] | 252.2 | 2.16 | 94.42 | 3.33 |  | 
9 | COCC1CCN(c2cc(C(=O)O)nc3c2c(C(C)C)nn3-c2ccnc(N3CCOCC3)c2)CC1 [compound 525, 4-[4-(methoxymethyl)piperidin-1-yl]-1-[2-(morpholin-4-yl)pyridin-4-yl]-3-(propan-2-yl)-1H-pyrazolo[3,4-b]pyridine-6-carboxylic acid] | 311.3 | 0.936 | 232.2 | 0.416 |  | 
10 | CC(C)c1nn(C2CCCCC2)c2nc(C(=O)O)cc(-c3cnc(N4CCOCC4)nc3)c12 [compound 80, 1-cyclohexyl-4-[2-(morpholin-4-yl)pyrimidin-5-yl]-3-(propan-2-yl)-1H-pyrazolo[3,4-b]pyridine-6-carboxylic acid] | 341.92 | 2.93 |  |  | 184.8 | 0.611
11 | O=C(O)c1cc(OCCN2CCCC2)c2c(C3CCC3)nn(-c3ccccc3)c2n1 [compound 628, 3-cyclobutyl-1-phenyl-4-[2-(pyrrolidin-1-yl)ethoxy]-1H-pyrazolo[3,4-b]pyridine-6-carboxylic acid] | 217.7 | 3.33 | 67.69 | 3.18 |  | 
12 | COCCN(CCOC)c1ccc(-c2cc(C(=O)O)nc3c2c(C(C)C)nn3C2CCCCC2)cn1 [compound 275, 4-{6-[bis(2-methoxyethyl)amino]pyridin-3-yl}-1-cyclohexyl-3-(propan-2-yl)-1H-pyrazolo[3,4-b]pyridine-6-carboxylic acid] | 371.35 | 0.736 |  |  | 173.8 | 0.923
13 | CC(C)c1nn(C2CCCC2)c2nc(C(=O)O)cc(-c3cnc(N(C)C)nc3)c12 [compound 67, 1-cyclopentyl-4-[2-(dimethylamino)pyrimidin-5-yl]-3-(propan-2-yl)-1H-pyrazolo[3,4-b]pyridine-6-carboxylic acid] | 280.35 | 1.26 |  |  | 117.6 | 1.59
14 | O=C(O)c1cc(N2CC3CC3C2)c2c(C3CCC3)nn(-c3ccccc3)c2n1 (stereo not shown) [compound 406, 4-(3-azabicyclo[3.1.0]hexan-3-yl)-3-cyclobutyl-1-phenyl-1H-pyrazolo[3,4-b]pyridine-6-carboxylic acid] | 359.55 | 0.641 | 182.5 | 0.823 |  | 
15 | CC(=O)N1CCC(Oc2cc(C(=O)O)nc3c2c(C2CCC2)nn3-c2ccccc2)CC1 [compound 612, 4-[(1-acetylpiperidin-4-yl)oxy]-3-cyclobutyl-1-phenyl-1H-pyrazolo[3,4-b]pyridine-6-carboxylic acid] | 266.9 | 1.18 | 109.5 | 3.33 |  | 
16 | CO[C@H]1CCN(c2cc(C(=O)O)nc3c2c(C2CCC2)nn3-c2ccccc2)C1 [compound 512, 3-cyclobutyl-4-[(3S)-3-methoxypyrrolidin-1-yl]-1-phenyl-1H-pyrazolo[3,4-b]pyridine-6-carboxylic acid] | 286.4 | 1.42 | 103 | 1.17 |  | 
17 | Cc1nn(C2CCCCC2)c2nc(C(=O)O)cc(-c3ccc(N(C)C)nc3)c12 [compound 99, 1-cyclohexyl-4-[6-(dimethylamino)pyridin-3-yl]-3-methyl-1H-pyrazolo[3,4-b]pyridine-6-carboxylic acid] | 247.8 | 1.1 |  |  | 80.69 | 1.53
18 | CC1(COc2cc(C(=O)O)nc3c2c(C2CCC2)nn3-c2ccccc2)CC1 [compound 630, 3-cyclobutyl-4-[(1-methylcyclopropyl)methoxy]-1-phenyl-1H-pyrazolo[3,4-b]pyridine-6-carboxylic acid] | 323.7 | 0.254 | 136.15 | 0.308 |  | 
19 | Cc1nn(C2CCCCC2)c2nc(C(=O)O)cc(-c3cnc(N(C)C)nc3)c12 [compound 75, 1-cyclohexyl-4-[2-(dimethylamino)pyrimidin-5-yl]-3-methyl-1H-pyrazolo[3,4-b]pyridine-6-carboxylic acid] | 254 | 1.15 |  |  | 117.1 | 3.13

Source: patent publication US9796711B2, “Substituted pyrazolo[3,4-b]pyridin-6-carboxylic acids and method of use” (AbbVie S.àr.l., priority 2015, dated 2017)
